SMILES strings stand for the structures. “Also recorded” adds a separate entry of the source.

In one experiment the test system is C. cinerea. Briefly: LiCl added at different developmental stages of C. cinerea. The class given is cell-based, Coprinopsis cinerea. The method, then: FIG. 4: The development of C. cinerea treated with 0.1 ml of 3 g/L LiCl at different stage.
FIG. 5: Life cycle of the mushroom-forming fungi, and the sensitive windows to the GSK-3 inhibitors (stages in grey). […] These stages are sensitive windows.
The effect of LiCl at different developmental stages of C. cinerea were tested. 0.1 ml of 3 g/L LiCl were added to the agar plate.

Experiment [1] concerns GSK-3 and its target genes. As to the kind of experiment: Quantitative real-time PCR of GSK-3 and its target genes under LiCl treatment. The class given is cell-based, Coprinopsis cinerea. How it is done:
FIG. 6: The gene expression levels are indicated by the abundance of segments on the cDNA, by real-time PCR. […] Glycogen synthase (CC1G_01973); GSK-3 protein kinase (CC1G_03802); eukaryotic translation initiation factor 1 (CC1G_03881); Uncharacterized protein with Ricin B-type lectin domain (CC1G_05298); Translation initiation factor eIF2 gamma subunit (CC1G_09429).
The expression levels of targets genes of GSK-3 were measured to explore the mechanism of LiCl. To characterize the gene expression profile changes, quantitative real-time PCR analysis was performed. the kinase and its substrates by Orthologue searching were selected. A total of 83 GSK-3 substrates reported in human and mouse were mapped to the C. cinerea genome, and 52 orthologues were identified. Among them, CC1G_01973, CC1G_03881, and CC1G_09429 were selected for real-time PCR analysis. Samples treated by different doses of LiCl were frozen and homogenized in liquid nitrogen to extract total RNAs. […] Decreased eIF1 gene expression supports that LiCl block the fruiting through inhibiting GSK-3 activity in initiating the translation of key protein. Binding of eIF1 to 40S ribosome is key to maintain an open conformation on 40S ribosomal subunit to initiate translation (Passmore et al. 2007). Low level of eIF1 was also found to lower mRNA translation in Saccharomyces cerevisiae (You et al. 2010).
For orientation: Real-time PCR tracks product formation cycle by cycle.

The mark [2] stands for this setting: different doses of LiCl, real-time PCR.

With `[Cl-].[Li+]` [LiCl, Lithium chloride], the “Further development after LiCl addition” value with C. cinerea (0.1 ml of 3 g/L LiCl added at initial) is reported as “led to the arrest of their development; also recorded: led to inhibition on further development; also recorded: resulted in arrestment in fruiting body development”; in the experiment with C. cinerea (0.1 ml of 3 g/L LiCl added at stage-1 primordium), “led to the arrest of their development; also recorded: led to inhibition on further development; also recorded: resulted in arrestment in fruiting body development”; with C. cinerea (0.1 ml of 3 g/L LiCl added at stage-2 primordium) it was “could continue to develop into fruiting bodies; also recorded: cannot inhibit the fruiting body development”; in the experiment with C. cinerea (0.1 ml of 3 g/L LiCl added at young fruiting body), “could continue to develop into fruiting bodies; also recorded: cannot inhibit the fruiting body development”; in the experiment on C. cinerea (LiCl intervention at hyphal knot) it was “resulted in arrestment in fruiting body development”; with C. cinerea (LiCl intervention at mycelium), “resulted in arrestment in fruiting body development”. Also, the GSK-3 gene expression result in experiment [1] (3 g/L LiCl mixed in the substrate) was “general decrease in GSK-3 gene expression”. Besides, the “Expression level of GSK-3 gene and selected GSK-3 target genes” value in experiment [1] (setting [2]) is on record as “could regulate the expression; also recorded: change the expression level”. Moreover, in experiment [1] (setting [2]), the eIF1 gene expression entry is listed as “decreased with increase of LiCl concentration”.

Source of the values: patent US11668702B2, “Regulation of fungal fruiting body development” (The Chinese University of Hong Kong, priority 2017, dated 2023).
